Data published in ChEMBL document CHEMBL1123725, “Effect of reductive alkylation of D-lysine in position 6 on the histamine-releasing activity of luteinizing hormone-releasing hormone antagonists” (1987).
Values after ≈ are worked out from the molar mass of the structure shown.

System: rat peritoneal mast cells (Rattus norvegicus)
Assay: In vitro histamine-release activity by using peritoneal cells from male Sprague-Dawley rats in a standard assay

## CC(=O)NC(Cc1ccc2ccccc2c1)C(=O)NC(Cc1ccccc1)C(=O)NC(Cc1ccccc1)C(=O)N[C@@H](CO)C(=O)N[C@@H](Cc1ccc(O)cc1)C(=O)NC(Cc1c[nH]c2ccccc12)C(=O)NC(Cc1ccccc1)C(=O)N[C@@H](CC(C)C)C(=O)N1CCC[C@@H]1C(=O)NC(C)C(N)=O (stereo in doubt)
  ED50: 46 µg/mL (≈ 32.5 µM)
